Measurements: paper PMC5218480 (PLoS ONE, 2017)

Tested on: MV-4-11 cells
Assay: Gene expression microarray analysis (Affymetrix PrimeView) and GSEA
Assay type: cell-based, human
Design: RFU PODN (11730768_x_at) / Fold change /veh PODN (11730768_x_at) / RFU LINC00158 (11744669_a_at) / Fold change /veh LINC00158 (11744669_a_at) / RFU DUSP10 (11751237_a_at) / Fold change /veh DUSP10 (11751237_a_at) / RFU ID3 (11757404_x_at) / Fold change /veh ID3 (11757404_x_at) / RFU PLEKHG5 (11737974_s_at) / Fold change /veh PLEKHG5 (11737974_s_at) / RFU LRRC4B (11730491_at) / Fold change /veh LRRC4B (11730491_at) / RFU GIMAP4 (11747438_a_at) / Fold change /veh GIMAP4 (11747438_a_at) / RFU KRT8 (11758183_x_at) / Fold change /veh KRT8 (11758183_x_at) / RFU CNN1 (11734310_a_at) / Fold change /veh CNN1 (11734310_a_at) / RFU VPS37D (11726825_at) / Fold change /veh VPS37D (11726825_at) / RFU C10orf10 (11716522_x_at) / Fold change /veh C10orf10 (11716522_x_at) / RFU KIR2DL2 /// KIR2DL4 /// KIR2DL5A /// KIR2DL5B /// KIR2DS1 /// KIR2DS2 /// KIR2DS3 /// KIR2DS4 /// KIR3DL3 /// KIR3DL3 /// KIR3DS1 (11738374_at) / Fold change /veh KIR2DL2 /// KIR2DL4 /// KIR2DL5A /// KIR2DL5B /// KIR2DS1 /// KIR2DS2 /// KIR2DS3 /// KIR2DS4 /// KIR3DL3 /// KIR3DL3 /// KIR3DS1 (11738374_at) / RFU C1QL1 (11718748_at) / Fold change /veh C1QL1 (11718748_at) / RFU TMPRSS4 (11747572_a_at) / Fold change /veh TMPRSS4 (11747572_a_at) / RFU HAMP (11756126_x_at) / Fold change /veh HAMP (11756126_x_at) / RFU RNFT2 (11725882_a_at) / Fold change /veh RNFT2 (11725882_a_at) / RFU NR4A2 (11747474_a_at) / Fold change /veh NR4A2 (11747474_a_at) / RFU ABCC12 (11746883_a_at) / Fold change /veh ABCC12 (11746883_a_at) / RFU TMEM136 (11760407_x_at) / Fold change /veh TMEM136 (11760407_x_at) / RFU CLDN22 /// WWC2 (11732394_at) / Fold change /veh CLDN22 /// WWC2 (11732394_at) / RFU HLA-DPB1 (11760878_x_at) / Fold change /veh HLA-DPB1 (11760878_x_at) / RFU SPINT1 (11716480_a_at) / Fold change /veh SPINT1 (11716480_a_at) / RFU GAP43 (11754022_s_at) / Fold change /veh GAP43 (11754022_s_at) / RFU A4GNT (11735810_at) / Fold change /veh A4GNT (11735810_at) / RFU PRB3 (11715151_x_at) / Fold change /veh PRB3 (11715151_x_at) / RFU TUBB4B (11761932_at) / Fold change /veh TUBB4B (11761932_at) / RFU CAPN14 (11732068_a_at) / Fold change /veh CAPN14 (11732068_a_at) / RFU TMCC2 (11721928_a_at) / Fold change /veh TMCC2 (11721928_a_at) / RFU IRGQ (11745062_a_at) / Fold change /veh IRGQ (11745062_a_at) / RFU FAM174B (11720279_a_at) / Fold change /veh FAM174B (11720279_a_at) / RFU TMPRSS4 (11748680_a_at) / Fold change /veh TMPRSS4 (11748680_a_at) / RFU FAM212B (11763350_a_at) / Fold change /veh FAM212B (11763350_a_at) / RFU PLEKHG5 (11743358_a_at) / Fold change /veh PLEKHG5 (11743358_a_at) / RFU ZSCAN30 (11745921_a_at) / Fold change /veh ZSCAN30 (11745921_a_at) / RFU CMKLR1 (11741424_a_at) / Fold change /veh CMKLR1 (11741424_a_at) / RFU LOC101060620 /// MAPK8IP1 (11723275_at) / Fold change /veh LOC101060620 /// MAPK8IP1 (11723275_at) / RFU SPTSSB (11747773_x_at) / Fold change /veh SPTSSB (11747773_x_at) / RFU PRSS12 (11739890_at) / Fold change /veh PRSS12 (11739890_at) / RFU BIN1 (11741810_x_at) / Fold change /veh BIN1 (11741810_x_at) / RFU WNT11 (11732464_a_at) / Fold change /veh WNT11 (11732464_a_at) / RFU C10orf10 (11716521_a_at) / Fold change /veh C10orf10 (11716521_a_at) / RFU C5orf56 (11738089_at) / Fold change /veh C5orf56 (11738089_at) / RFU CYB561 (11721691_x_at) / Fold change /veh CYB561 (11721691_x_at) / RFU ANKRD19P (11752326_a_at) / Fold change /veh ANKRD19P (11752326_a_at) / RFU OR2T12 /// OR2T33 /// OR2T8 (11738714_s_at) / Fold change /veh OR2T12 /// OR2T33 /// OR2T8 (11738714_s_at) / RFU VCAN (11748164_a_at) / Fold change /veh VCAN (11748164_a_at) / RFU JSRP1 (11732532_at) / Fold change /veh JSRP1 (11732532_at) / RFU KRTAP10-11 (11738290_x_at) / Fold change /veh KRTAP10-11 (11738290_x_at) / RFU MYO3A (11730013_a_at) / Fold change /veh MYO3A (11730013_a_at) / RFU EBF3 (11725865_a_at) / Fold change /veh EBF3 (11725865_a_at) / RFU CAMK2N1 (11719241_x_at) / Fold change /veh CAMK2N1 (11719241_x_at) / RFU C5orf56 (11738088_a_at) / Fold change /veh C5orf56 (11738088_a_at) / RFU OLFML3 (11715873_a_at) / Fold change /veh OLFML3 (11715873_a_at) / RFU LOC100653217 /// NTM (11731650_a_at) / Fold change /veh LOC100653217 /// NTM (11731650_a_at) / RFU MAPK11 (11762145_a_at) / Fold change /veh MAPK11 (11762145_a_at) / RFU FIZ1 (11724087_x_at) / Fold change /veh FIZ1 (11724087_x_at) / RFU OASL (11726364_x_at) / Fold change /veh OASL (11726364_x_at) / RFU SOX15 (11748057_x_at) / Fold change /veh SOX15 (11748057_x_at) / RFU CD79A (11719716_a_at) / Fold change /veh CD79A (11719716_a_at) / RFU HIST1H1D (11736915_at) / Fold change /veh HIST1H1D (11736915_at) / RFU CASKIN2 (11723855_a_at) / Fold change /veh CASKIN2 (11723855_a_at) / RFU LOC730098 (11760151_x_at) / Fold change /veh LOC730098 (11760151_x_at) / RFU OR4N2 (11742367_at) / Fold change /veh OR4N2 (11742367_at) / RFU PRRT2 (11749266_a_at) / Fold change /veh PRRT2 (11749266_a_at) / RFU SNX32 (11753110_a_at) / Fold change /veh SNX32 (11753110_a_at) / RFU CDHR5 (11726645_a_at) / Fold change /veh CDHR5 (11726645_a_at) / RFU RCAN1 (11760418_a_at) / Fold change /veh RCAN1 (11760418_a_at) / RFU FAM167A (11723789_a_at) / Fold change /veh FAM167A (11723789_a_at) / RFU FAM26E (11764081_at) / Fold change /veh FAM26E (11764081_at) / RFU ISYNA1 (11749810_s_at) / Fold change /veh ISYNA1 (11749810_s_at) / RFU ACY1 (11761880_at) / Fold change /veh ACY1 (11761880_at) / RFU 11764098_at / Fold change /veh 11764098_at / RFU SAMD14 (11745864_x_at) / Fold change /veh SAMD14 (11745864_x_at) / RFU NPB (11741838_a_at) / Fold change /veh NPB (11741838_a_at) / RFU TMPRSS6 (11731388_a_at) / Fold change /veh TMPRSS6 (11731388_a_at) / RFU KRTAP10-2 (11738614_at) / Fold change /veh KRTAP10-2 (11738614_at) / RFU ARHGAP8 /// PRR5-ARHGAP8 (11727945_x_at) / Fold change /veh ARHGAP8 /// PRR5-ARHGAP8 (11727945_x_at) / RFU KRTAP5-7 /// NADSYN1 (11734609_at) / Fold change /veh KRTAP5-7 /// NADSYN1 (11734609_at) / RFU RASL12 (11751679_a_at) / Fold change /veh RASL12 (11751679_a_at) / RFU CDKN2B (11736163_a_at) / Fold change /veh CDKN2B (11736163_a_at) / RFU PRF1 (11729649_at) / Fold change /veh PRF1 (11729649_at) / RFU, ZNF638 /// ZNF638-IT1 / Fold change vs veh, ZNF638 /// ZNF638-IT1 / RFU, PANK3 / Fold change vs veh, PANK3 / RFU, SH3YL1 / Fold change vs veh, SH3YL1 / RFU, ZEB2 / Fold change vs veh, ZEB2 / RFU, NRIP1 / Fold change vs veh, NRIP1 / RFU, PTTG1IP / Fold change vs veh, PTTG1IP / RFU, CAPN2 / Fold change vs veh, CAPN2 / RFU, MED14 / Fold change vs veh, MED14 / RFU, SNORA58 / Fold change vs veh, SNORA58 / RFU, C1orf63 / Fold change vs veh, C1orf63 / RFU, LRRFIP1 / Fold change vs veh, LRRFIP1 / RFU, NDUFAF7 / Fold change vs veh, NDUFAF7 / RFU, SLC12A2 / Fold change vs veh, SLC12A2 / RFU, IBTK / Fold change vs veh, IBTK / RFU, ESF1 / Fold change vs veh, ESF1 / Fold change vs veh, TMEM50B / RFU, TAOK1 / Fold change vs veh, TAOK1 / RFU, ACBD3 / Fold change vs veh, ACBD3 / RFU, TMA16 / Fold change vs veh, TMA16 / RFU, RWDD3 / Fold change vs veh, RWDD3 / RFU, BCAT1 / Fold change vs veh, BCAT1 / RFU, EDEM3 / Fold change vs veh, EDEM3 / RFU, TMEM33 / Fold change vs veh, TMEM33 / RFU, WDR75 / Fold change vs veh, WDR75 / RFU, AHCTF1 / Fold change vs veh, AHCTF1 / RFU, TFRC / Fold change vs veh, TFRC / RFU, ZDHHC17 / Fold change vs veh, ZDHHC17 / RFU, NOM1 / Fold change vs veh, NOM1 / RFU, ARL8B / Fold change vs veh, ARL8B / RFU, ZBTB11 / Fold change vs veh, ZBTB11 / RFU, TAMM41 / Fold change vs veh, TAMM41 / RFU, KIAA1704 /// LOC100996395 / Fold change vs veh, KIAA1704 /// LOC100996395 / RFU, ING1 / Fold change vs veh, ING1 / RFU, TRMT61B / Fold change vs veh, TRMT61B / RFU, FUBP3 / Fold change vs veh, FUBP3 / RFU, TP53 / Fold change vs veh, TP53 / RFU, TNKS2 / Fold change vs veh, TNKS2 / RFU, ZFP14 / Fold change vs veh, ZFP14 / RFU, ACTR2 / Fold change vs veh, ACTR2 / RFU, PPP3R1 / Fold change vs veh, PPP3R1 / RFU, PIK3R1 / Fold change vs veh, PIK3R1 / RFU, HNRNPA1 / Fold change vs veh, HNRNPA1 / RFU, RNF170 / Fold change vs veh, RNF170 / RFU, ZNF28 / Fold change vs veh, ZNF28 / RFU, RNGTT / Fold change vs veh, RNGTT / RFU, OGT / Fold change vs veh, OGT / RFU, BRD1 / Fold change vs veh, BRD1 / RFU, MARS / Fold change vs veh, MARS / RFU, ZNF655 / Fold change vs veh, ZNF655 / RFU, FAHD1 / Fold change vs veh, FAHD1 / RFU, BDP1 / Fold change vs veh, BDP1 / RFU, LRRCC1 / Fold change vs veh, LRRCC1 / RFU, ARID1A / Fold change vs veh, ARID1A / RFU, ZNF146 / Fold change vs veh, ZNF146 / RFU, ZNF330 / Fold change vs veh, ZNF330 / RFU, GPN3 / Fold change vs veh, GPN3 / RFU, C9orf123 / Fold change vs veh, C9orf123 / RFU, N4BP2L2 / Fold change vs veh, N4BP2L2 / RFU, ARFIP1 / Fold change vs veh, ARFIP1 / RFU, FAM179B / Fold change vs veh, FAM179B / RFU, BCL10 / Fold change vs veh, BCL10 / RFU, UHRF1BP1L / Fold change vs veh, UHRF1BP1L / RFU, BET1 / Fold change vs veh, BET1 / RFU, CNOT2 / Fold change vs veh, CNOT2 / RFU, ZNF268 / Fold change vs veh, ZNF268 / Fold change vs veh, ZNF507 / RFU, DGCR2 / Fold change vs veh, DGCR2 / RFU, WDSUB1 / Fold change vs veh, WDSUB1 / Fold change vs veh, HSP90B1 /// MIR3652 / RFU, ADSS / Fold change vs veh, ADSS / RFU, GK / Fold change vs veh, GK / RFU, ZNF148 / Fold change vs veh, ZNF148 / RFU, TAF9 / Fold change vs veh, TAF9 / RFU, SLC1A5 / Fold change vs veh, SLC1A5 / RFU, SLMO2 / Fold change vs veh, SLMO2 / RFU, ABCC4 / Fold change vs veh, ABCC4 / RFU, LOC101060439 /// RAP1B / Fold change vs veh, LOC101060439 /// RAP1B / RFU, RFX7 / Fold change vs veh, RFX7 / RFU, GTPBP10 / Fold change vs veh, GTPBP10 / RFU, CNEP1R1 / Fold change vs veh, CNEP1R1 / RFU, BIVM-ERCC5 /// ERCC5 / Fold change vs veh, BIVM-ERCC5 /// ERCC5 / RFU, ILF3 / Fold change vs veh, ILF3 / RFU 11762660_at / Fold change /veh 11762660_at / RFU VCAN (11757783_s_at) / Fold change /veh VCAN (11757783_s_at) / RFU DDX43 (11728927_at) / Fold change /veh DDX43 (11728927_at) / RFU KRT8 (11758188_x_at) / Fold change /veh KRT8 (11758188_x_at) / RFU NKD1 (11759106_at) / Fold change /veh NKD1 (11759106_at) / RFU SRD5A1 (11742802_a_at) / Fold change /veh SRD5A1 (11742802_a_at) / RFU TPSAB1 /// TPSB2 (11721975_s_at) / Fold change /veh TPSAB1 /// TPSB2 (11721975_s_at) / RFU GSTM3 (11746129_a_at) / Fold change /veh GSTM3 (11746129_a_at) / RFU IL23R (11737362_x_at) / Fold change /veh IL23R (11737362_x_at) / RFU TMEM51 (11727254_a_at) / Fold change /veh TMEM51 (11727254_a_at) / RFU PIWIL2 (11732686_x_at) / Fold change /veh PIWIL2 (11732686_x_at) / RFU ORM1 (11744905_x_at) / Fold change /veh ORM1 (11744905_x_at) / RFU CCDC152 (11743942_at) / Fold change /veh CCDC152 (11743942_at) / RFU ECM1 (11717891_a_at) / Fold change /veh ECM1 (11717891_a_at) / RFU IL23R (11748794_a_at) / Fold change /veh IL23R (11748794_a_at) / RFU TNFAIP8L3 (11732012_x_at) / Fold change /veh TNFAIP8L3 (11732012_x_at) / RFU MBOAT4 (11741988_at) / Fold change /veh MBOAT4 (11741988_at) / RFU 11764193_at / Fold change /veh 11764193_at / RFU TMEM53 (11763286_at) / Fold change /veh TMEM53 (11763286_at) / RFU MAGEB2 (11727129_at) / Fold change /veh MAGEB2 (11727129_at) / RFU TMEM200A (11744735_a_at) / Fold change /veh TMEM200A (11744735_a_at) / RFU CCDC152 (11751479_a_at) / Fold change /veh CCDC152 (11751479_a_at) / RFU FAM211A (11726209_a_at) / Fold change /veh FAM211A (11726209_a_at) / RFU RGS16 (11746705_a_at) / Fold change /veh RGS16 (11746705_a_at) / RFU VCAN (11755009_s_at) / Fold change /veh VCAN (11755009_s_at) / RFU RHOB (11743442_s_at) / Fold change /veh RHOB (11743442_s_at) / RFU RGS16 (11720943_a_at) / Fold change /veh RGS16 (11720943_a_at) / RFU RGS16 (11720944_at) / Fold change /veh RGS16 (11720944_at) / RFU, VPS4B / Fold change vs veh, VPS4B / RFU, CREB1 / Fold change vs veh, CREB1 / RFU, DNAJC13 / Fold change vs veh, DNAJC13 / RFU, GNAQ / Fold change vs veh, GNAQ / RFU, CDK5R1 / Fold change vs veh, CDK5R1 / RFU, ZRANB3 / Fold change vs veh, ZRANB3 / RFU, CUL4A / Fold change vs veh, CUL4A / RFU, CCNY / Fold change vs veh, CCNY / RFU, UFL1 / Fold change vs veh, UFL1 / RFU, COG3 / Fold change vs veh, COG3 / RFU, DIAPH2 / Fold change vs veh, DIAPH2 / RFU, SKA2 / Fold change vs veh, SKA2 / RFU, AFF3 / Fold change vs veh, AFF3 / RFU, LMF1 / Fold change vs veh, LMF1 / RFU, IPO11 / Fold change vs veh, IPO11 / RFU, DFFB / Fold change vs veh, DFFB / RFU, FOXP1 / Fold change vs veh, FOXP1 / RFU, CARD8 / Fold change vs veh, CARD8 / RFU, STRN3 / Fold change vs veh, STRN3 / RFU, ADK / Fold change vs veh, ADK / RFU, RASSF2 / Fold change vs veh, RASSF2 / RFU, WIPF1 / Fold change vs veh, WIPF1 / RFU, LARP1B / Fold change vs veh, LARP1B / RFU, RASA1 / Fold change vs veh, RASA1 / RFU, RB1 / Fold change vs veh, RB1 / RFU, PPFIA1 / Fold change vs veh, PPFIA1 / RFU, MAT2A / Fold change vs veh, MAT2A / RFU, CCT5 / Fold change vs veh, CCT5 / RFU, WDR92 / Fold change vs veh, WDR92 / RFU, CUX1 / Fold change vs veh, CUX1 / RFU, TTC7A / Fold change vs veh, TTC7A / RFU, TMEM135 / Fold change vs veh, TMEM135 / RFU, DEPTOR / Fold change vs veh, DEPTOR / RFU, CPM / Fold change vs veh, CPM / RFU, DNAJB6 / Fold change vs veh, DNAJB6 / RFU, CACNA2D3 / Fold change vs veh, CACNA2D3 / RFU, DTX4 / Fold change vs veh, DTX4 / RFU, TFCP2 / Fold change vs veh, TFCP2 / RFU, GMCL1 /// GMCL1P1 / Fold change vs veh, GMCL1 /// GMCL1P1 / RFU, AEBP2 / Fold change vs veh, AEBP2 / RFU, SNHG1 /// SNORD22 /// SNORD25 /// SNORD26 /// SNORD27 /// SNORD28 /// SNORD29 /// SNORD31 / Fold change vs veh, SNHG1 /// SNORD22 /// SNORD25 /// SNORD26 /// SNORD27 /// SNORD28 /// SNORD29 /// SNORD31 / Fold change (Aza/veh), C12orf56 (ProbeSet 11735607_a_at) / Fold change (ACY-1035/veh), C12orf56 (ProbeSet 11735607_a_at) / Fold change (Aza/veh), FGFR1OP (ProbeSet 11751329_s_at) / Fold change (ACY-1035/veh), FGFR1OP (ProbeSet 11751329_s_at) / Fold change (Aza/veh), VPS36 (ProbeSet 11739960_a_at) / Fold change (ACY-1035/veh), VPS36 (ProbeSet 11739960_a_at) / RFU SYPL1 (11715823_x_at) / Fold change /veh SYPL1 (11715823_x_at) / RFU IGFBP7 (11715501_s_at) / Fold change /veh IGFBP7 (11715501_s_at) / RFU REEP3 (11722064_at) / Fold change /veh REEP3 (11722064_at) / RFU IGLL1 (11728026_x_at) / Fold change /veh IGLL1 (11728026_x_at): dose or concentration left out as unconfirmed
Conditions: MV-4-11 cells, 48 hours

## Nc1ncn([C@@H]2O[C@H](CO)[C@@H](O)[C@H]2O)c(=O)n1 [azacitidine]
  RFU SAMD14 (11745864_x_at): 17.52 RFU
